The source of these data is publication PMC3639963, “A New Class of Small Molecule Inhibitor of BMP Signaling” (PLoS ONE, 2013).

Common to all, as to assay: DSF thermal shift
What all share (format): binding
Conditions in all cases: 10 µM inhibitor; read-out: Tm shift

For one assay, the target named is T1, GRK1 (Homo sapiens, UniProt Q15835).
T1 construct: purchased Nanosyn (enzymatic panel); SGC in-house recombinant human kinases (DSF panel); Invitrogen (ALK1-6)
T1 sequence (Q15835 1-563): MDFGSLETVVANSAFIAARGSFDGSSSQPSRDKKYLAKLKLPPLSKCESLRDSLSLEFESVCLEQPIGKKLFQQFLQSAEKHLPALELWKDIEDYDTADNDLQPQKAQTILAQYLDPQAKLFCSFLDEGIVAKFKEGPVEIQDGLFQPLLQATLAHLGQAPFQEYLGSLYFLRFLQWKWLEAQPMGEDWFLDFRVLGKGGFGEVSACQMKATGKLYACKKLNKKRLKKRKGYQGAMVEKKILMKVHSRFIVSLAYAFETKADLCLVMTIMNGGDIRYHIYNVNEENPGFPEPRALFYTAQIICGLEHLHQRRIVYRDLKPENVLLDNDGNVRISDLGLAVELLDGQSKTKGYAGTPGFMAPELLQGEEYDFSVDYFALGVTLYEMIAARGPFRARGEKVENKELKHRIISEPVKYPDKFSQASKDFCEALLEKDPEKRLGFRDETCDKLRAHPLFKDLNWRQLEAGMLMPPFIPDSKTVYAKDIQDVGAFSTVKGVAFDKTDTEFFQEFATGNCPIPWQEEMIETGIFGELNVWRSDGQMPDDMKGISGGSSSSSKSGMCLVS
The method, then: (§1) Thermal melting experiments were performed using a Real Time PCR machine Mx3005p (Stratagene) with a protein concentration of 1–2 µM and 10 µM inhibitor as described previously, [25]. […] Recombinant human kinases for DSF screening were prepared by SGC using published methods, [36].

A further assay deals with T2, PLK4 (Homo sapiens, UniProt O00444).
T2 construct: purchased Nanosyn (enzymatic panel); SGC in-house recombinant human kinases (DSF panel); Invitrogen (ALK1-6)
T2 sequence (O00444 1-970): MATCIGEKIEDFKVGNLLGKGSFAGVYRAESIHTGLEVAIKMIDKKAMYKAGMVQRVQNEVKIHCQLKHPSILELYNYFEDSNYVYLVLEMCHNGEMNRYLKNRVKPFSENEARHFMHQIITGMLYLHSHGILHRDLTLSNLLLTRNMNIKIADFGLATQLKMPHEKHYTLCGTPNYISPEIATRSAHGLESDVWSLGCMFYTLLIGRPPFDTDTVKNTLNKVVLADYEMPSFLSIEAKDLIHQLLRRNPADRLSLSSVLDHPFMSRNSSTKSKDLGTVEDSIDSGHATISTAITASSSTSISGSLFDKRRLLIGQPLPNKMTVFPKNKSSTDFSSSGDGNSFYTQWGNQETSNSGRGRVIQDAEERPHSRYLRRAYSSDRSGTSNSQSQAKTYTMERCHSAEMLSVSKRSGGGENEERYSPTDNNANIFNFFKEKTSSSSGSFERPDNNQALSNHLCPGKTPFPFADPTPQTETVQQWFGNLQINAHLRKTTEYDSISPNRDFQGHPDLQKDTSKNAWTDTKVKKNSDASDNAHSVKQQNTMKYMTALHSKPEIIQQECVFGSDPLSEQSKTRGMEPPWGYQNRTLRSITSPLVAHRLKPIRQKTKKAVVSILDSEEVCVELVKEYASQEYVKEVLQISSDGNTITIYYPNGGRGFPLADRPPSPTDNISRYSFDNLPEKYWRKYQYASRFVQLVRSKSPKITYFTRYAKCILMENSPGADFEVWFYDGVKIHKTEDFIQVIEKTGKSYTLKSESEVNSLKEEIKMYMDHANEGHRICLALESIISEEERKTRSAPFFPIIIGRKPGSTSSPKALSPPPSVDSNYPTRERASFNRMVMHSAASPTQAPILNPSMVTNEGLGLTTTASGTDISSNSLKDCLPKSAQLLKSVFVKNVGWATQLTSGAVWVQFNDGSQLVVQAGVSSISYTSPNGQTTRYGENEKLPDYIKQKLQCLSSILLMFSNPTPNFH
As for the experimental part:
as §1

In another assay the target is T3, Haspin (Homo sapiens, UniProt Q8TF76).
T3 construct: purchased Nanosyn (enzymatic panel); SGC in-house recombinant human kinases (DSF panel); Invitrogen (ALK1-6)
T3 sequence (Q8TF76 1-798): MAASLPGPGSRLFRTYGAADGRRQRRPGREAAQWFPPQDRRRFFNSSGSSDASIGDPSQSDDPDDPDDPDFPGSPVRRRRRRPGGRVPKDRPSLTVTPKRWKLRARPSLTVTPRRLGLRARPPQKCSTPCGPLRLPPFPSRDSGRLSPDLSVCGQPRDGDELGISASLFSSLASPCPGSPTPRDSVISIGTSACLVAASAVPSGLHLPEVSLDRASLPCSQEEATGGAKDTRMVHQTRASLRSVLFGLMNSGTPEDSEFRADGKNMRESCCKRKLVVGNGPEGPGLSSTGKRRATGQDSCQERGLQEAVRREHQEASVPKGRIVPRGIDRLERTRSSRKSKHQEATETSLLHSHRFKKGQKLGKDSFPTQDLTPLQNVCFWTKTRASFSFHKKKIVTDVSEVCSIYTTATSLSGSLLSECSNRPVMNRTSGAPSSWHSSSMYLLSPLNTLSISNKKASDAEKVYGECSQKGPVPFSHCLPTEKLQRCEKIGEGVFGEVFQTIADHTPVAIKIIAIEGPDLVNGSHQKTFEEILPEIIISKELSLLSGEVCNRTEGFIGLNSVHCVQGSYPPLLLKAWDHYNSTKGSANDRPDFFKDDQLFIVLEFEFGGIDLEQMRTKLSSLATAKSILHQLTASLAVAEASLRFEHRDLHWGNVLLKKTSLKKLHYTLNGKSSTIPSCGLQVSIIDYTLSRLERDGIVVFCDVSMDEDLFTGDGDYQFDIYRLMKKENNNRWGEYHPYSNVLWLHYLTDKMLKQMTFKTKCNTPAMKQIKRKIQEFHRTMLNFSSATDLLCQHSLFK
The method, then: as §1

With `c1cc(-c2cnn3cc(-c4ccc(OCCN5CCCCC5)cc4)cnc23)ccn1` [Dorsomorphin], the ΔTm at 10 µM at GRK1 was determined as 0.4 °C; at PLK4, 4.2 °C; at Haspin it was 2.3 °C.
`COc1cc(-c2cc(-c3cccc(O)c3)cnc2N)cc(OC)c1OC` [K02288, 3-[6-amino-5-(3,4,5-trimethoxy-phenyl)-pyridin-3-yl]-phenol]: the ΔTm at 10 µM is 0 °C on GRK1, 0 °C at PLK4 and 0.3 °C on Haspin.
Take `c1ccc2c(-c3cnn4cc(-c5ccc(N6CCNCC6)cc5)cnc34)ccnc2c1` [LDN-193189]: the results for the ΔTm at 10 µM on GRK1, on PLK4 and on Haspin were -0.7 °C, 3.7 °C and 0.4 °C, respectively.
